Patent US6525001B1, “Substituted pyrimidine and pyridine herbicides” (Mid-American Commercialization Corporation, priority 1997, dated 2003)

Key:
Assay type in all cases: in vivo
Parameters in all cases: key: 0 is no effect; 10 is complete control
corn (Zea mays) = experiment: Test B pre-/postemergence
Text: (§1) Seeds of bedstraw (Galium aparine), blackgrass (Alopecurus myosuroides), broadleaf signalgrass (Brachiaria decumbens), cocklebur (Xanthium strumarium), corn (Zea mays), crabgrass (Digitaria sanguinalis), giant foxtail (Setaria faberii), lambsquarters (Chenopodium album), momingglory (Ipomoea hederacea), pigweed (Amaranthus retroflexus), rape (Brassica napus), soybean (Glycine max), sugar beet (Beta vulgaris), velvetleaf (Abutilon theophrasti), wheat (Triticum aestivum), wild oat (Avena fatua) and purple nutsedge (Cyperus rotundus) tubers were planted and treated preemergence with test chemicals formulated in a non-phytotoxic solvent mixture which included a surfactant.
(§2) At the same time, these crop and weed species were also treated with postemergence applications of test chemicals formulated in the same manner. Plants ranged in height from 2 to 18 cm (1- to 4-leaf stage) for postemergence treatments. Plant species in the flood test consisted of rice (Oryza sativa), smallflower flatsedge (Cyperus difformis), duck salad (Heteranthera limosa) and bamyardgrass (Echinochloa crus-galli) grown to the 2-leaf stage for testing. Treated plants and controls were maintained in a greenhouse for twelve to sixteen days, after which all species were compared to controls and visually evaluated. Plant response ratings, summarized in Table B, are based on a scale of 0 to 10 where 0 is no effect and 10 is complete control. A dash (−) response means no test result.

[1] = test system: purple nutsedge (Cyperus rotundus); experiment: Test B pre-/postemergence
Text: as §1, §2

[2] = test system: giant foxtail (Setaria faberii); experiment: Test B pre-/postemergence
Text: as §1, §2

[3] = test system: bedstraw (Galium aparine); experiment: Test B pre-/postemergence
Text: as §1, §2

[4] = test system: blackgrass (Alopecurus myosuroides); experiment: Test B pre-/postemergence
Text: as §1, §2

[5] = test system: broadleaf signalgrass (Brachiaria decumbens); experiment: Test B pre-/postemergence
Text: as §1, §2

[6] = test system: sugar beet (Beta vulgaris); experiment: Test B pre-/postemergence
Text: as §1, §2

[7] = test system: momingglory (Ipomoea hederacea); experiment: Test B pre-/postemergence
Text: as §1, §2

[8] = test system: velvetleaf (Abutilon theophrasti); experiment: Test B pre-/postemergence
Text: as §1, §2

rape (Brassica napus) = experiment: Test B pre-/postemergence
Text: as §1, §2

[9] = test system: crabgrass (Digitaria sanguinalis); experiment: Test B pre-/postemergence
Text: as §1, §2

wild oat (Avena fatua) = experiment: Test B pre-/postemergence
Text: as §1, §2

[10] = test system: wheat (Triticum aestivum); experiment: Test B pre-/postemergence
Text: as §1, §2

[11] = test system: cocklebur (Xanthium strumarium); experiment: Test B pre-/postemergence
Text: as §1, §2

soybean (Glycine max) = experiment: Test B pre-/postemergence
Text: as §1, §2

[12] = test system: pigweed (Amaranthus retroflexus); experiment: Test B pre-/postemergence
Text: as §1, §2

rice (Oryza sativa) = experiment: Test B flood test
Outline: (§3)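 Each value is a visual injury score relative to controls, with 10 meaning complete control and 0 no effect. Evaluation took place twelve to sixteen days after the 2-leaf-stage plants were treated and kept in the greenhouse.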

[13] = test system: smallflower flatsedge (Cyperus difformis); experiment: Test B flood test
Outline: as §3

[14] = test system: bamyardgrass (Echinochloa crus-galli); experiment: Test B flood test
Outline: as §3

[15] = test system: duck salad (Heteranthera limosa); experiment: Test B flood test
Outline: as §3

[16] = Rate 62 g/ha, Postemergence (flood test)
[17] = Rate 125 g/ha, Postemergence, flood test
[18] = Rate 250 g/ha, Postemergence (flood test species)

Cc1cnc(-c2cccc(C(F)(F)F)c2)nc1Cc1cccc(C(F)(F)F)c1 [Compound 24]
10: Plant response rating, Bedstraw ([3]; Rate 125 g/ha, Postemergence) | Plant response rating, Bedstraw ([3]; Rate 250 g/ha, Postemergence) | Plant response rating, Sugarbeets ([6]; Rate 62 g/ha, Postemergence) | Plant response rating, Sugarbeets ([6]; Rate 125 g/ha, Postemergence) | Plant response rating, Sugarbeets ([6]; Rate 250 g/ha, Postemergence) | Plant response rating, Morningglory ([7]; Rate 125 g/ha, Postemergence) | Plant response rating, Morningglory ([7]; Rate 250 g/ha, Postemergence) | Plant response rating, Rape (rape (Brassica napus); Rate 125 g/ha, Postemergence) | Plant response rating, Rape (rape (Brassica napus); Rate 250 g/ha, Postemergence) | Plant response rating, Cocklebur ([11]; Rate 250 g/ha, Postemergence) | Plant response rating, Redroot pigweed ([12]; Rate 125 g/ha, Postemergence) | Plant response rating, Redroot pigweed ([12]; Rate 250 g/ha, Postemergence) | Plant response rating, Redroot pigweed ([12]; Rate 250 g/ha, Preemergence)
4: Plant response rating, Bedstraw ([3]; Rate 62 g/ha, Postemergence) | Plant response rating, Blackgrass ([4]; Rate 250 g/ha, Postemergence) | Morningglory plant response rating ([7]; Rate 125 g/ha, Preemergence) | Plant response rating, Morningglory ([7]; Rate 250 g/ha, Preemergence) | Plant response rating, Rape (rape (Brassica napus); Rate 250 g/ha, Preemergence) | Plant response rating, Wild oats (wild oat (Avena fatua); Rate 250 g/ha, Postemergence) | Plant response rating, Wild oats (wild oat (Avena fatua); Rate 250 g/ha, Preemergence) | Plant response rating, Barnyardgrass [14, 18]
7: Plant response rating, Velvetleaf ([8]; Rate 250 g/ha, Postemergence)
8: Plant response rating, Morningglory ([7]; Rate 62 g/ha, Postemergence) | Plant response rating, Rape (rape (Brassica napus); Rate 62 g/ha, Postemergence) | Plant response rating, Crabgrass ([9]; Rate 62 g/ha, Postemergence) | Plant response rating, Crabgrass ([9]; Rate 125 g/ha, Postemergence) | Plant response rating, Crabgrass ([9]; Rate 250 g/ha, Postemergence) | Redroot pigweed plant response rating ([12]; Rate 125 g/ha, Preemergence)
0: Corn plant response rating (corn (Zea mays); Rate 62 g/ha, Preemergence) | Corn plant response rating (corn (Zea mays); Rate 125 g/ha, Preemergence) | Plant response rating, Corn (corn (Zea mays); Rate 250 g/ha, Preemergence) | Plant response rating, Nutsedge ([1]; Rate 62 g/ha, Postemergence) | Nutsedge plant response rating ([1]; Rate 62 g/ha, Preemergence) | Nutsedge plant response rating ([1]; Rate 125 g/ha, Preemergence) | Plant response rating, Nutsedge ([1]; Rate 250 g/ha, Preemergence) | Giant foxtail plant response rating ([2]; Rate 62 g/ha, Preemergence) | Bedstraw plant response rating ([3]; Rate 62 g/ha, Preemergence) | Blackgrass plant response rating ([4]; Rate 62 g/ha, Preemergence) | Velvetleaf plant response rating ([8]; Rate 62 g/ha, Preemergence) | Rape plant response rating (rape (Brassica napus); Rate 62 g/ha, Preemergence) | Wild oats plant response rating (wild oat (Avena fatua); Rate 62 g/ha, Preemergence) | Wheat plant response rating ([10]; Rate 62 g/ha, Preemergence) | Wheat plant response rating ([10]; Rate 125 g/ha, Preemergence) | Plant response rating, Wheat ([10]; Rate 250 g/ha, Preemergence) | Cocklebur plant response rating ([11]; Rate 62 g/ha, Preemergence) | Cocklebur plant response rating ([11]; Rate 125 g/ha, Preemergence) | Plant response rating, Cocklebur ([11]; Rate 250 g/ha, Preemergence) | Soybean plant response rating (soybean (Glycine max); Rate 62 g/ha, Preemergence) | Soybean plant response rating (soybean (Glycine max); Rate 125 g/ha, Preemergence) | Plant response rating, Soybean (soybean (Glycine max); Rate 250 g/ha, Preemergence) | Redroot pigweed plant response rating ([12]; Rate 62 g/ha, Preemergence) | Plant response rating, S. Flatsedge [13, 16] | Plant response rating, Ducksalad [15, 16]
6: Giant foxtail plant response rating ([2]; Rate 125 g/ha, Preemergence) | Plant response rating, Giant foxtail ([2]; Rate 250 g/ha, Preemergence) | Plant response rating, B. signalgrass ([5]; Rate 250 g/ha, Preemergence) | Plant response rating, Velvetleaf ([8]; Rate 125 g/ha, Postemergence) | Plant response rating, Soybean (soybean (Glycine max); Rate 125 g/ha, Postemergence) | Plant response rating, Soybean (soybean (Glycine max); Rate 250 g/ha, Postemergence)
3: Plant response rating, Giant foxtail ([2]; Rate 250 g/ha, Postemergence) | Plant response rating, Blackgrass ([4]; Rate 125 g/ha, Postemergence) | Plant response rating, Blackgrass ([4]; Rate 250 g/ha, Preemergence) | B. signalgrass plant response rating ([5]; Rate 125 g/ha, Preemergence) | Plant response rating, B. signalgrass ([5]; Rate 250 g/ha, Postemergence) | Sugarbeets plant response rating ([6]; Rate 125 g/ha, Preemergence) | Crabgrass plant response rating ([9]; Rate 125 g/ha, Preemergence) | Plant response rating, Wild oats (wild oat (Avena fatua); Rate 125 g/ha, Postemergence) | Plant response rating, Wheat ([10]; Rate 250 g/ha, Postemergence) | Plant response rating, Soybean (soybean (Glycine max); Rate 62 g/ha, Postemergence) | Plant response rating, S. Flatsedge [13, 18] | Plant response rating, Barnyardgrass [14, 17] | Plant response rating, Ducksalad [15, 18]
2: Plant response rating, Giant foxtail ([2]; Rate 62 g/ha, Postemergence) | Plant response rating, Giant foxtail ([2]; Rate 125 g/ha, Postemergence) | Plant response rating, Blackgrass ([4]; Rate 62 g/ha, Postemergence) | Blackgrass plant response rating ([4]; Rate 125 g/ha, Preemergence) | Plant response rating, B. signalgrass ([5]; Rate 62 g/ha, Postemergence) | B. signalgrass plant response rating ([5]; Rate 62 g/ha, Preemergence) | Plant response rating, B. signalgrass ([5]; Rate 125 g/ha, Postemergence) | Sugarbeets plant response rating ([6]; Rate 62 g/ha, Preemergence) | Morningglory plant response rating ([7]; Rate 62 g/ha, Preemergence) | Plant response rating, Velvetleaf ([8]; Rate 62 g/ha, Postemergence) | Plant response rating, Velvetleaf ([8]; Rate 250 g/ha, Preemergence) | Rape plant response rating (rape (Brassica napus); Rate 125 g/ha, Preemergence) | Plant response rating, Wild oats (wild oat (Avena fatua); Rate 62 g/ha, Postemergence) | Plant response rating, Wheat ([10]; Rate 62 g/ha, Postemergence) | Plant response rating, Wheat ([10]; Rate 125 g/ha, Postemergence) | Plant response rating, Rice (rice (Oryza sativa); [18]) | Plant response rating, Barnyardgrass [14, 16] | Plant response rating, Ducksalad [15, 17]
9: Plant response rating, Sugarbeets ([6]; Rate 250 g/ha, Preemergence) | Plant response rating, Cocklebur ([11]; Rate 62 g/ha, Postemergence) | Plant response rating, Cocklebur ([11]; Rate 125 g/ha, Postemergence) | Plant response rating, Redroot pigweed ([12]; Rate 62 g/ha, Postemergence)
1: Plant response rating, Corn (corn (Zea mays); Rate 62 g/ha, Postemergence) | Plant response rating, Corn (corn (Zea mays); Rate 125 g/ha, Postemergence) | Plant response rating, Corn (corn (Zea mays); Rate 250 g/ha, Postemergence) | Plant response rating, Nutsedge ([1]; Rate 125 g/ha, Postemergence) | Bedstraw plant response rating ([3]; Rate 125 g/ha, Preemergence) | Plant response rating, Bedstraw ([3]; Rate 250 g/ha, Preemergence) | Velvetleaf plant response rating ([8]; Rate 125 g/ha, Preemergence) | Crabgrass plant response rating ([9]; Rate 62 g/ha, Preemergence) | Plant response rating, Crabgrass ([9]; Rate 250 g/ha, Preemergence) | Wild oats plant response rating (wild oat (Avena fatua); Rate 125 g/ha, Preemergence) | Plant response rating, Rice (rice (Oryza sativa); [16]) | Plant response rating, Rice (rice (Oryza sativa); [17]) | Plant response rating, S. Flatsedge [13, 17]
